Measurements as given in US7510830B2, “Cancer treatment by combination therapy” (Cancer Research Technology Limited, priority 2000, dated 2009).
Entries after “also recorded” stand apart in the source; their conditions may differ. Like-named read-outs stand apart in the source and are kept apart here.

Columns and labels:
[1] = system: TNF production in human peripheral blood leucocytes (HPBL); assay type: cell-based
Description: Partially purified buffy coats were purchased from Auckland Blood Centre and divided into 15-ml, aliquots in 50-ml centrifuge tubes (2070 Conical Tubes, Becton Dickinson Labware, N.J., USA). HPBL in tissue culture dishes (10 ml; 10^7 cells/ml) were incubated overnight in α-MEM culture medium supplemented with FCS (10% v/v), streptomycin sulphate (100 μg/ml) and penicillin-G (100 units/ml). All extraction operations were carried out at 7° C. to prevent clotting. Unsupplemented α-MEM medium was added to 30 ml and a 10-ml layer of Ficoll-Paque PLUS was slowly added to the bottom of the tubes. After centrifugation at 300 g for 30 min the upper layer was removed and the HPBL layer was carefully drawn off into a fresh 50-ml centrifuge tube. The volume was adjusted to 50 ml, the cells were centrifuged at 300 g, and HPBL were resuspended in supplemented α-MEM medium and added (1 ml/well) to 24 well plates (Nunc, Kamstrup, Roskilde, Denmark). Agents (made up at twice the final concentration) were added and plates were incubated for the appropriate times in 5% CO2air at 37° C. overnight. DMXAA sodium salt (this laboratory) was dissolved in medium and protected from light FAA (National Cancer Institute, USA) was dissolved in 5% (w/v) sodium bicarbonate and diluted with medium. Interleukin-laipha (R&D Systems, USA), okadaic acid, LPS and deacylated LPS (Sigma Chemical Co., USA) were dissolved in α-MEM, filter-sterilised and used immediately. The MEM-18 mouse anti-human CD14 IgG antibody was obtained from Sanbio bv, am Uden, Netherlands, and was freed from azide before use by ultrafiltration.
After the appropriate incubation period of HPBL with drug, supernatants were either used immediately or stored at −20° C. TNF standards were prepared by making serial dilutions of the TNF stock solution in supplemented culture media (concentration range 10-10,000 pg/ml). ELISA plates were made using the OptEIA Human TNF-alpha Set (Pharmingen, San Diego, Calif., USA). TNF standards and samples were added to the ELISA plates and the assays were carried out according to the makers' directions.

[2] = cited from earlier work
cancer = details: humans; cited from earlier work
serum TNF in C57BL mice = assay: In vivo serum TNF in mice with or without antibiotic pre-treatment; parameters: species or system mouse
Description: To test the hypothesis that low concentrations of LPS synergise with DMXAA for in vivo TNF production, mice were treated orally with antibiotics for […] and then treated with 25 mg/kg DMXAA. TNF levels were measured […]. C57BL mice were either untreated, or treated for 4 days prior to DMXAA with a mixture of antibiotics (cephalocin 2 g/l and neomycin 2 g/l in the drinking water). Mice received a single i.p. dose of DMXAA (25 mg/kg) and blood was collected by cardiac puncture of halothane-anaesthetised mice after 3 hours. Blood from each mouse was transferred to individual microcentrifuge tubes and allowed to clot overnight on ice before centrifugation at 2000×g for 20 minutes at 4° C. If clotting was not complete the sample was allowed to stand on ice for a further 2 hours, after which it was re-centrifuged. Serum was drawn off the top of the blood samples and stored at −20° C. until assay of TNF content. […] ELISA (enzyme-linked immunosorbent assay) plates were made using the OptEIA Human TNF-alpha-Set (Pharmingen, San Diego, Calif., USA). TNF standards and samples were added to the ELISA plates and the assays were carried out according to the manufacturer's directions.

[3] = system: TNF production in murine leucocytes; assay: TNF production in cultured murine leucocytes in vitro (8 h, ELISA); assay type: cell-based, mouse
Description: The effect of DMXAA on cultured murine leucocytes has also been investigated using LPS as a control. TNF was measured by enzyme-linked immunosorbent assay after 8 h.
Blood samples for extraction of leucocytes were taken by cardiac puncture of halothane-anaesthetised mice into 1-ml syringes containing ACD-A anticoagulant (0.1 ml). All extraction operations were carried out at 7° C. to prevent clotting. Samples were pooled and unsupplemented α-MEM was added to 30 ml and a 10-ml layer of Ficoll-Paque PLUS™ was slowly added to the bottom of the tubes. After centrifugation at 300×g for 30 min the upper layer was removed and the leucocyte layer was carefully drawn off into a fresh 50-ml centrifuge tube. The volume was adjusted to 50 ml with unsupplemented growth medium, the cells were centrifuged at 300×g, and the leucocytes were resuspended at 10^7 cells/ml in α-MEM supplemented with foetal bovine serum (10% v/v), streptomycin sulphate (100 μg/ml) and penicillin-G (100 units/ml).
Cells were added either to 24 well plates (1 ml/well; Nunc, Kamstrup, Roskilde, Denmark) or to 100 mm Petri dishes (10 ml/plate) and incubated in 5% CO2/air at 37° C. overnight. Agents (made up at twice the final concentration in growth medium) were added and plates were further incubated for 8 hours. After the appropriate incubation period of HPBL with drug in 24-well plates, supernatants were removed and either assayed immediately or stored at −20° C.
TNF standards were prepared by making serial dilutions of the TNF stock solution in supplemented culture media (concentration range 10-10,000 pg/ml). ELISA (enzyme-linked immunosorbent assay) plates were made using the OptEIA Human TNF-alpha-Set (Pharmingen, San Diego, Calif., USA). TNF standards and samples were added to the ELISA plates and the assays were carried out according to the manufacturer's directions.

murine tumours = details: cited from earlier work

C=C1[C@@H](O)[C@@H]2O[C@]3(CC[C@H](/C=C/[C@@H](C)[C@@H]4CC(C)=C[C@@]5(O[C@H](C[C@@](C)(O)C(=O)O)CC[C@H]5O)O4)O3)CC[C@H]2O[C@@H]1[C@@H](O)C[C@H](C)[C@H]1O[C@@]2(CCCCO2)CC[C@H]1C [OA, okadaic acid, reference compound]
TNF synthesis ([1]; OA alone at concentrations higher than 20 ng/ml, HPBL): induced TNF synthesis
TNF induction ([1]; OA alone at concentrations up to 20 ng/ml, HPBL): no substantial induction of TNF

Cc1ccc2c(=O)c3cccc(CC(=O)O)c3oc2c1C [DMXAA, 5,6-dimethylxanthenone-4-acetic acid]
TNF production [1]: large increase in TNF production; also recorded: induced a higher degree of TNF production
induction of TNF by low concentrations of LPS ([1]; DMXAA added to LPS, peripheral blood monocytes): unexpectedly stimulated
induction of TNF by antibody (MEM-18) to CD14 ([1]; DMXAA added to anti-CD14 antibody, peripheral blood monocytes): unexpectedly stimulated
TNF induction ([1]; DMXAA alone, 800 μg/ml, HPBL): no substantial induction of TNF; also recorded: no substantial effect
TNF induction ([1]; DMXAA alone, cultured HPBL, concentration not given): little effect on TNF induction
increase in induction of TNF compared to IL-1 alone ([1]; DMXAA coadministered with IL-1, HPBL (FIG. 4)): up to 56 fold
water solubility [2]: highly water soluble
clinical anti-cancer activity (cancer): marginal clinical anti-cancer activity
serum TNF (serum TNF in C57BL mice; DMXAA 25 mg/kg i.p. following antibiotic treatment, versus mice not receiving antibiotics (FIG. 8)): increased serum TNF but the increase was significantly smaller (p<0.001)
serum TNF concentrations (serum TNF in C57BL mice; DMXAA 25 mg/kg single i.p. dose, mice not receiving antibiotics (FIG. 8)): substantially increased serum TNF concentrations
TNF production ([3]; DMXAA (800 μg/ml) co-incubated with anti-CD14 antibody (10 μl/well), murine leucocytes (FIG. 7)): high level of TNF production that was even greater than that caused by LPS
TNF production ([3]; DMXAA (800 μg/ml) coincubated with dLPS (500 μg/ml), murine leucocytes (FIG. 7)): significant (p<0.001) elevation of TNF production
TNF production ([3]; DMXAA alone (800 μg/ml), murine leucocytes, 8 h (FIG. 7)): did not significantly increase TNF production
antitumour activity (murine tumours): significant antitumour activity

CCCCCCCCCCCCCC(=O)O[C@@H]1[C@@H](C)[C@@]2(O)[C@@H](C=C(CO)C[C@]3(O)C(=O)C(C)=C[C@@H]23)[C@@H]2C(C)(C)[C@]12OC(C)=O [PMA, phorbol-12-myristate-13-acetate, reference compound]
TNF synthesis ([1]; PMA alone at concentrations higher than 20 ng/ml, HPBL): induced TNF synthesis
TNF induction ([1]; PMA alone at concentrations up to 20 ng/ml, HPBL): no substantial induction of TNF

B1: IL-1: interleukin-1 alpha, inflammatory cytokine (R&D Systems) (protein, UniProt P01583 113-271, looked up)
Interleukin-1 alpha: SAPFSFLSNVKYNFMRIIKYEFILNDALNQSIIRANDQYLTAAALHNLDEAVKFDMGAYKSSKDDAKITVILRISKTQLYVTAQDEDQPVLLKEMPEIPKTITGSETNLLFFWETHGTKNYFTSVAHPNLFIATKQDYWVCLAGGPPSITDFQILENQA
TNF induction ([1]; IL-1 alone, HPBL (FIG. 4)): capable of inducing TNF
